Data published in patent US5440016A, “Peptides of the formula (KFmoc) ZZZ and their uses” (priority 1993, dated 1995).
Square brackets hold non-standard residues; d marks the D form. Peptide text beside a SMILES is read from it. * marks the point of attachment. Phe(4-NO2) = N[C@@H](Cc1ccc([N+](=O)[O-])cc1)C(=O)O; Met(O2) = CS(=O)(=O)CC[C@H](N)C(=O)O; Fmoc = O=C(OCC1c2ccccc2-c2ccccc21)*; Orn = NCCC[C@H](N)C(=O)O; Thz = O=C(O)[C@@H]1CSCN1; Abu = CC[C@H](N)C(=O)O; Aib = CC(C)(N)C(=O)O; βAla = NCCC(=O)O

tested on: Human red blood cells (RBCs); experiment: Hemolytic activity; format: cell-based; settings: Table 20, lower part
Description: Each assay was carried out in 96-well culture tissue plates. Four wells per plate contain 125 μl of a non-peptide positive control (1% Triton in de-ionized water), and four wells per plate contain 125 μl of a control blank, phosphate buffered saline (PBS). The hemolytic peptide melittin was used as comparative control. The controls served to detect possible contamination and to calculate the percent hemolysis of each peptide. Human red blood cells (RBCs) were washed with PBS and centrifuged to separate them from the serum. The cells were then resuspended in PBS to a final suspension of 0.5% RBC. 125 μl of this suspension was added to the peptides and controls solution. The release of hemoglobin resulting from the cell lysis was determined by measuring the OD at 414 nm of 100 μl of the supernatant.

SMILES | HD50 (concentration necessary to lyse 50% of the cells) [μg/m]
CS(=O)(=O)CC[C@H](NC(=O)[C@@H](Cc1ccccc1)NC(=O)[C@H](Cc1c[nH]c2ccccc12)NC(=O)[C@H](CCCCN)NC(=O)OCC1c2ccccc2-c2ccccc21)C(N)=O [(KFmoc)Wf(MetO2)-NH2] (Fmoc-KW[dF][Met(O2)]-NH2) | 44
NCCCC[C@H](NC(=O)OCC1c2ccccc2-c2ccccc21)C(=O)N[C@@H](Cc1c[nH]c2ccccc12)C(=O)N[C@H](Cc1ccccc1)C(=O)N[C@@H](CCCN)C(N)=O [(KFmoc)Wf(Orn)-NH2] (Fmoc-KW[dF][Orn]-NH2) | 64
NCCCC[C@H](NC(=O)OCC1c2ccccc2-c2ccccc21)C(=O)N[C@@H](Cc1c[nH]c2ccccc12)C(=O)N[C@H](Cc1ccccc1)C(=O)N1CSC[C@H]1C(N)=O [(KFmoc)Wf(Thiopro)-NH2] (Fmoc-KW[dF][Thz]-NH2) | 45

same assay, conditions: Tables 18-21

SMILES | HD50 (concentration necessary to lyse 50% of the cells) [µg/mL]
CC(C)C[C@H](NC(=O)[C@H](CCCCN)NC(=O)[C@H](Cc1c[nH]c2ccccc12)NC(=O)[C@H](CCCCN)NC(=O)OCC1c2ccccc2-c2ccccc21)C(N)=O [(KFmoc)WKL-NH2] (Fmoc-KWKL-NH2) | 73
CSCC[C@H](NC(=O)[C@H](CCCCN)NC(=O)[C@H](Cc1c[nH]c2ccccc12)NC(=O)[C@H](CCCCN)NC(=O)OCC1c2ccccc2-c2ccccc21)C(N)=O [(KFmoc)WKM-NH2] (Fmoc-KWKM-NH2) | 102
NCCCC[C@H](NC(=O)OCC1c2ccccc2-c2ccccc21)C(=O)N[C@@H](Cc1c[nH]c2ccccc12)C(=O)N[C@@H](CCCCN)C(=O)N[C@@H](CC(N)=O)C(N)=O [(KFmoc)WKN-NH2] (Fmoc-KWKN-NH2) | 204
N=C(N)NCCC[C@H](NC(=O)[C@H](CCCCN)NC(=O)[C@H](Cc1c[nH]c2ccccc12)NC(=O)[C@H](CCCCN)NC(=O)OCC1c2ccccc2-c2ccccc21)C(N)=O [(KFmoc)WKR-NH2] (Fmoc-KWKR-NH2) | 387
NCCCC[C@H](NC(=O)OCC1c2ccccc2-c2ccccc21)C(=O)N[C@@H](Cc1c[nH]c2ccccc12)C(=O)N[C@@H](CCCCN)C(=O)N[C@@H](CO)C(N)=O [(KFmoc)WKS-NH2] (Fmoc-KWKS-NH2) | 206
C[C@@H](O)[C@H](NC(=O)[C@H](CCCCN)NC(=O)[C@H](Cc1c[nH]c2ccccc12)NC(=O)[C@H](CCCCN)NC(=O)OCC1c2ccccc2-c2ccccc21)C(N)=O [(KFmoc)WKT-NH2] (Fmoc-KWKT-NH2) | 367
CC(C)[C@H](NC(=O)[C@H](CCCCN)NC(=O)[C@H](Cc1c[nH]c2ccccc12)NC(=O)[C@H](CCCCN)NC(=O)OCC1c2ccccc2-c2ccccc21)C(N)=O [(KFmoc)WKV-NH2] (Fmoc-KWKV-NH2) | 137
NCCCC[C@H](NC(=O)OCC1c2ccccc2-c2ccccc21)C(=O)N[C@@H](Cc1c[nH]c2ccccc12)C(=O)N[C@@H](CCCCN)C(=O)N[C@@H](Cc1c[nH]c2ccccc12)C(N)=O [(KFmoc)WKW-NH2] (Fmoc-KWKW-NH2) | 37
NCCCC[C@H](NC(=O)OCC1c2ccccc2-c2ccccc21)C(=O)N[C@@H](Cc1c[nH]c2ccccc12)C(=O)N[C@@H](CCCCN)C(=O)N[C@@H](Cc1ccc(O)cc1)C(N)=O [(KFmoc)WKY-NH2] (Fmoc-KWKY-NH2) | 156
NCCCC[C@H](NC(=O)OCC1c2ccccc2-c2ccccc21)C(=O)N[C@@H](Cc1c[nH]c2ccccc12)C(=O)N[C@@H](Cc1ccc(O)cc1)C(=O)N[C@@H](CCCN)C(N)=O [(KFmoc)WY(Orn)-NH2] (Fmoc-KWY[Orn]-NH2) | 62
NCCCC[C@H](NC(=O)OCC1c2ccccc2-c2ccccc21)C(=O)N[C@@H](Cc1c[nH]c2ccccc12)C(=O)N[C@@H](Cc1ccc(O)cc1)C(=O)N1CSC[C@H]1C(N)=O [(KFmoc)WY(Thiopro)-NH2] (Fmoc-KWY[Thz]-NH2) | 488
CC[C@H](NC(=O)[C@H](Cc1ccc(O)cc1)NC(=O)[C@H](Cc1c[nH]c2ccccc12)NC(=O)[C@H](CCCCN)NC(=O)OCC1c2ccccc2-c2ccccc21)C(N)=O [(KFmoc)WY(aABA)-NH2] (Fmoc-KWY[Abu]-NH2) | 114
NCCCC[C@H](NC(=O)OCC1c2ccccc2-c2ccccc21)C(=O)N[C@@H](Cc1c[nH]c2ccccc12)C(=O)N[C@@H](Cc1ccc(O)cc1)C(=O)N[C@@H](CS)C(N)=O [(KFmoc)WYC-NH2] (Fmoc-KWYC-NH2) | 267
NCCCC[C@H](NC(=O)OCC1c2ccccc2-c2ccccc21)C(=O)N[C@@H](Cc1c[nH]c2ccccc12)C(=O)N[C@@H](Cc1ccc(O)cc1)C(=O)NCC(N)=O [(KFmoc)WYG-NH2] (Fmoc-KWYG-NH2) | 376
NCCCC[C@H](NC(=O)OCC1c2ccccc2-c2ccccc21)C(=O)N[C@@H](Cc1c[nH]c2ccccc12)C(=O)N[C@@H](Cc1ccc(O)cc1)C(=O)N[C@@H](Cc1c[nH]cn1)C(N)=O [(KFmoc)WYH-NH2] (Fmoc-KWYH-NH2) | 139
NCCCC[C@H](NC(=O)[C@H](Cc1ccc(O)cc1)NC(=O)[C@H](Cc1c[nH]c2ccccc12)NC(=O)[C@H](CCCCN)NC(=O)OCC1c2ccccc2-c2ccccc21)C(N)=O [(KFmoc)WYK-NH2] (Fmoc-KWYK-NH2) | 65

SMILES | HD50 (concentration necessary to lyse 50% of the cells) [µg/mL]
NCCCC[C@H](NC(=O)OCC1c2ccccc2-c2ccccc21)C(=O)N[C@@H](Cc1c[nH]c2ccccc12)C(=O)N[C@@H](Cc1ccc(O)cc1)C(=O)N1CCC[C@H]1C(N)=O [(KFmoc)WYP-NH2] (Fmoc-KWYP-NH2) | 97
N=C(N)NCCC[C@H](NC(=O)[C@H](Cc1ccc(O)cc1)NC(=O)[C@H](Cc1c[nH]c2ccccc12)NC(=O)[C@H](CCCCN)NC(=O)OCC1c2ccccc2-c2ccccc21)C(N)=O [(KFmoc)WYR-NH2] (Fmoc-KWYR-NH2) | 45
C[C@@H](O)[C@H](NC(=O)[C@H](Cc1ccc(O)cc1)NC(=O)[C@H](Cc1c[nH]c2ccccc12)NC(=O)[C@H](CCCCN)NC(=O)OCC1c2ccccc2-c2ccccc21)C(N)=O [(KFmoc)WYT-NH2] (Fmoc-KWYT-NH2) | 53
CC[C@H](C)[C@H](NC(=O)[C@@H](Cc1ccccc1)NC(=O)[C@H](Cc1c[nH]c2ccccc12)NC(=O)[C@H](CCCCN)NC(=O)OCC1c2ccccc2-c2ccccc21)C(N)=O [(KFmoc)WfI-NH2] (Fmoc-KW[dF]I-NH2) | 208
CC(C)C[C@H](NC(=O)[C@@H](Cc1ccccc1)NC(=O)[C@H](Cc1c[nH]c2ccccc12)NC(=O)[C@H](CCCCN)NC(=O)OCC1c2ccccc2-c2ccccc21)C(N)=O [(KFmoc)WfL-NH2] (Fmoc-KW[dF]L-NH2) | 294
NCCCC[C@H](NC(=O)OCC1c2ccccc2-c2ccccc21)C(=O)N[C@@H](Cc1c[nH]c2ccccc12)C(=O)N[C@H](Cc1ccccc1)C(=O)N1CCC[C@H]1C(N)=O [(KFmoc)WfP-NH2] (Fmoc-KW[dF]P-NH2) | 40
N=C(N)NCCC[C@H](NC(=O)[C@@H](Cc1ccccc1)NC(=O)[C@H](Cc1c[nH]c2ccccc12)NC(=O)[C@H](CCCCN)NC(=O)OCC1c2ccccc2-c2ccccc21)C(N)=O [(KFmoc)WfR-NH2] (Fmoc-KW[dF]R-NH2) | 122
NCCCC[C@H](NC(=O)OCC1c2ccccc2-c2ccccc21)C(=O)N[C@@H](Cc1c[nH]c2ccccc12)C(=O)N[C@H](Cc1ccccc1)C(=O)N[C@@H](Cc1ccc(O)cc1)C(N)=O [(KFmoc)WfY-NH2] (Fmoc-KW[dF]Y-NH2) | 42
NCCCC[C@H](NC(=O)OCC1c2ccccc2-c2ccccc21)C(=O)N[C@@H](Cc1c[nH]c2ccccc12)C(=O)N[C@H](Cc1ccccc1)C(=O)N[C@H](Cc1c[nH]c2ccccc12)C(N)=O [(KFmoc)Wfw-NH2] (Fmoc-KW[dF][dW]-NH2) | 36
CC[C@@H](C)[C@@H](NC(=O)[C@@H](CS)NC(=O)[C@H](CCCCN)NC(=O)OCC1c2ccccc2-c2ccccc21)C(=O)NCCC(N)=O [(KFmoc)ci(Bala)-NH2] (Fmoc-K[dC][dI][βAla]-NH2) | 37
CC[C@@H](C)[C@@H](NC(=O)[C@@H](CS)NC(=O)[C@H](CCCCN)NC(=O)OCC1c2ccccc2-c2ccccc21)C(=O)N[C@@H](CCS(C)(=O)=O)C(N)=O [(KFmoc)ci(MetO2)-NH2] (Fmoc-K[dC][dI][Met(O2)]-NH2) | 40
CC[C@@H](C)[C@@H](NC(=O)[C@@H](CS)NC(=O)[C@H](CCCCN)NC(=O)OCC1c2ccccc2-c2ccccc21)C(=O)N[C@@H](Cc1ccc([N+](=O)[O-])cc1)C(N)=O [(KFmoc)ci(NO2 F)-NH2] (Fmoc-K[dC][dI][Phe(4-NO2)]-NH2) | 363
CC[C@@H](C)[C@@H](NC(=O)[C@@H](CS)NC(=O)[C@H](CCCCN)NC(=O)OCC1c2ccccc2-c2ccccc21)C(=O)N[C@@H](CCCN)C(N)=O [(KFmoc)ci(Orn)-NH2] (Fmoc-K[dC][dI][Orn]-NH2) | 77
CC[C@H](NC(=O)[C@H](NC(=O)[C@@H](CS)NC(=O)[C@H](CCCCN)NC(=O)OCC1c2ccccc2-c2ccccc21)[C@H](C)CC)C(N)=O [(KFmoc)ci(aABA)-NH2] (Fmoc-K[dC][dI][Abu]-NH2) | 29
CC[C@@H](C)[C@@H](NC(=O)[C@@H](CS)NC(=O)[C@H](CCCCN)NC(=O)OCC1c2ccccc2-c2ccccc21)C(=O)NC(C)(C)C(N)=O [(KFmoc)ci(aAIB)-NH2] (Fmoc-K[dC][dI][Aib]-NH2) | 28
